From patent US12275688B2, “Crystalline solids of MEK inhibitor N-((R)-2,3-dihydroxypropoxy)-3,4-difluoro-2-(2-fluoro-4-iodo-phenylamino)-benzamide and uses thereof” (SpringWorks Therapeutics, Inc., priority 2021, dated 2025)

Key:
Assay type in all cases: physicochemical
[1] = Solid-state stability of crystal forms at ambient conditions; details: ambient conditions
Text: The following sections describe and summarize the physical properties of each of the crystal forms observed for mirdametinib.

[2] = Drying of certain forms via vacuum oven at 45° C.; details: overnight in vacuum oven at 45° C.; PXRD at about 70% ambient lab humidity
Method: Drying studies for certain forms were conducted overnight in a vacuum oven at 45° C. After drying, samples were equilibrated to RT for 10 min. and analyzed by PXRD at about 70% ambient lab humidity.

[3] = Desolvation/dehydration by heating in TGA pan to 100° C.; details: 15° C./min from 25 to 100° C., 5 min. hold at 100° C., air-cooled to RT
Method: Desolvation/dehydration studies of certain forms were conducted in a TGA pan with loose lid at a heating rate of 15° C./min from 25 to 100° C. with a 5 min. hold at 100° C. Samples were air-cooled to RT on the TGA and analyzed by PXRD if crystalline. […] PXRD indicated Form I.

[4] = Toluene-spiked slurry studies of Form V in water:ethanol; details: water:ethanol (1.1/0.5 v/v) overnight at RT
Text: The process-relevant toluene solvate (Form V) was stirred in water:ethanol (1.1/0.5 v/v) overnight at RT with varying amounts of added toluene. The suspensions were filtered, and solids analyzed by PXRD.

[5] = Water activity studies of hydrates at 23° C.; details: water activities (aw) 0.6-0.99
Method: Water activity studies of the stable hydrated Forms VI and XIX were conducted to determine their relative thermodynamic stabilities. The studies were conducted at 23° C. in various water/ethanol mixtures to provide water activities (aw) from 0.6-0.99. The water activity range includes the approximate water activity of the current final isolation step of the mirdametinib manufacturing process. Saturated suspensions were prepared by stirring an excess of mirdametinib in the test solvents for 16 hours. The suspensions were filtered and transferred onto mixtures containing equivalent amounts of Form VI and Form XIX. […] The hydrates may be kinetically favored at higher water activities.

SMILES | Stable at ambient conditions for [1] [days] | Form after vacuum oven drying (PXRD) [2] | Result of desolvation/dehydration by heating [3] | Form after slurry (PXRD) ([4]; 0.5% added toluene (relative to mirdametinib weight)) | Form after slurry (PXRD) ([4]; 1% and 2% added toluene) | Form after slurry (PXRD) ([4]; no added toluene) | Relative stability versus hydrate Forms VI and XIX [5]
O=C(NOC[C@H](O)CO)c1ccc(F)c(F)c1Nc1ccc(I)cc1F [Form V, N—((R)-2,3-dihydroxypropoxy)-3,4-difluoro-2-(2-fluoro-4-iodo-phenylamino)-benzamide] | ≥ 10 | Remained unchanged | melted and solidified in molten, amorphous state, possible decomposition | converted to mostly Form IV with some lesser amount of Form V | higher relative amounts of Form V were observed | converted to phase-pure Form IV | 
O=C(NOC[C@H](O)CO)c1ccc(F)c(F)c1Nc1ccc(I)cc1F [Form IV, N—((R)-2,3-dihydroxypropoxy)-3,4-difluoro-2-(2-fluoro-4-iodo-phenylamino)-benzamide] |  |  |  |  |  |  | more stable at water activities (aw) 0.6-0.99 than hydrate Forms VI and XIX
